The record followed here is publication PMC9457810, “Synthesis, Structure and Antileishmanial Evaluation of Endoperoxide–Pyrazole Hybrids” (Molecules, 2022).

One data set has as its system THP-1 cell line. Kind of data set: In vitro cytotoxicity assessment in THP-1 cell line (MTT). The class given is cell-based, human. The conditions noted are these: for CC50: THP-1 cells, 48 h, MTT, at least three independent assays, read-out: Cytotoxicity CC50 ± SEM; for selectivity (SI values): THP-1 cytotoxicity versus antileishmanial activity of free hybrids (promastigotes). Here is the method:
(§1) THP-1 (ATCC® TIB-202TM) human acute monocytic leukemic cell line was obtained from DSMZ, Germany and cultured in RPMI 1640 (Sigma, Darmstadt, Germany) supplemented with 10% (v/v) FBS, 1% (v/v) penicillin-streptomycin (Sigma), and L-glutamine 200 mM (Sigma) at 37 °C, 5% CO2.
(§2) THP-1 cell line was used to calculate the endoperoxide–pyrazole hybrids’ half-maximal cytotoxic concentration (CC50). THP-1 was plated at a final density of 5 × 10^5 cells/mL, in 96-well flat bottom culture plates (VWR), using six different concentrations of the compounds (OZ1, OZ2, T1, T2 and PIR: 800, 400, 200, 100, 50, 25 µM) and amphotericin B (10, 5, 2.5, 1.25, 0.625, 0.313 µM). A blank (RPMI medium alone) and an untreated control (parasites with RPMI medium plus 1% DMSO as vehicle solution) were also included. All the compounds were plated out in quadruplicate and incubated for 48 h at 37 °C ± 1 °C, 5% CO2.
(§3) Following the incubation period, 20 µL per well of MTT was added as described in Section 3.5.2. After absorbance readings, the CC50 values of each compound were determined with GraphPad Prism V 9.0 (Dotmatics, San Diego, CA, USA) as previously described. At least three independent assays were performed.

For data set [1], the system named is L. tropica promastigotes. Kind of data set: Leishmania promastigotes in vitro susceptibility (MTT), L. tropica. Type of data set: cell-based. The conditions noted are these: 48 h, at least three independent assays; for IC50: read-out: Promastigotes Susceptibility IC50 ± SEM, L. tropica.
Data set [2] concerns L. infantum promastigotes. Kind of data set: Leishmania promastigotes in vitro susceptibility (MTT), L. infantum. Type of data set: cell-based. The conditions noted are these: 48 h, at least three independent assays; for IC50: read-out: Promastigotes Susceptibility IC50 ± SEM, L. infantum.
The nature of data set [3]: In vitro cytotoxicity assessment in THP-1 cell line (MTT). The class given is cell-based, human. The conditions noted are these: human, THP-1 cells, 48 h, MTT; at least three independent assays; read-out: Cytotoxicity CC50 ± SEM. Here is the method: as §1, §2, §3
The test system of data set [4] is L. tropica promastigotes. The experiment in a line: Morphometric analysis of L. tropica promastigotes (optical microscopy, Giemsa). Type of data set: cell-based, Leishmania tropica. The conditions noted are these: 48 h, OZ1 300 µM, OZ2 200 µM; for Body size of L. tropica promastigotes: amphotericin B 0.62 µM; for Morphological alterations of L. tropica promastigotes: Giemsa, 1000×. On the procedure:
To detect morphological alterations, at the end of the incubation period (48 h), 30 µL of the parasite’s suspension were collected from different treatment concentrations of each compound to prepare smears on glass slides, fixed with methanol, and stained with 5% (v/v) Giemsa (Sigma). Stained slides were examined with bright field in an inverted microscope (Eclipse 80i Nikon, Tokyo, Japan) with 1000× amplification, and images were captured with a Nikon DS-Ri1 camera. Image J (version 1.53k) was used to measure promastigote body and flagellum size of at least 30 parasite samples.
Data were expressed as mean ± standard error of the mean (SEM), and statistical analysis was performed with one-way ANOVA (Bonferoni’s multiple comparisons test) to determine whether differences between means relatively to untreated control were significant at different levels (p < 0.05, p < 0.01, p < 0.001).

Data set [5] has as its system intracellular amastigotes of L. infantum. The experiment in a line: Intracellular amastigotes susceptibility in THP-1-derived macrophages (infection index). Type of data set: cell-based, Leishmania infantum. The conditions noted are these: for SI (selectivity index): SI for amastigote forms = CC50 THP-1 / IC50 L. infantum; for IC50: THP-1-derived macrophages, 72 h, infection index, two independent assays, read-out: Intracellular Amastigote Susceptibility IC50 ± SEM, L. infantum. On the procedure: The in vitro intracellular amastigote assay was performed using a THP1 cell line maintained in complete RPMI at 37 °C, 5% CO2. After 24 h differentiation of 5 × 10^5 cells/mL into macrophages in sterile 16-chamber LabTek slides (Thermo Scientific, Waltham, MA, USA) with 25 ng mL^−1 phorbol myristic acid (PMA, Sigma), cells were washed once with warm RPMI to remove non-differentiated and non-adherent cells and further infected with 5 × 10^6 promastigotes/mL in a 10:1 parasite–macrophage ratio for another 24 h. After this period, slides were gently washed once with warm RPMI to remove non-internalised promastigotes. The compounds 2o, 2t, OZ1•HCl, OZ1•MsOH, and OZ1•TsOH at concentrations ranging 400 µM to 50 µM were added, and the slides were further incubated at 37 °C, 5% CO2 for 72 h. After this period, cells were washed with warm PBS, fixed with methanol (Sigma) and stained with Giemsa 5% (Sigma). AmB was used as positive control, and macrophages cultivated in RPMI medium and DMSO (0.5% v/v) were used as negative control. The infection index was determined by multiplying the percentage of infected cells and the number of amastigotes per infected cell as previously described. The results represent the average of two experiments. The IC50 for each compound was calculated by fitting the data as a non-linear regression with variable slope using a dose–response inhibitory model in the GraphPad Prism V 8.0 (Dotmatics, San Diego, CA, USA) program.
Selectivity index (SI) was determined for each compound as the quotient between the cytotoxicity in cell lines (CC50) and the inhibitory concentration (IC50) (SI = CC50 in mammalian cells/IC50 L. infantum).

Setting [6] is: Leishmania infantum, Macrophage.

Where a name gives a salt, the structure may show the parent alone. Read-outs that look alike come from different tables or passages of the source.

For orientation: CC50 means the concentration at which the toxic effect on the cells reaches its halfway point. By IC50 is commonly meant the concentration that inhibits the measured activity by half. On to `Nc1ccn(C(=O)C2CCC3(CC2)OOC2(OO3)C3CC4CC(C3)CC2C4)n1` (stereo not drawn) [T2•HCl, (3-Amino-1H-pyrazol-1-yl) (dispiro[cyclohexane-1,3′-[1,2,4,5]tetraoxane-6′,2″-tricyclo [3.3.1.1^3,7]decan]-4-yl) methanone hydrochloride], for which the half-maximal cytotoxic concentration (CC50) in the data set on THP-1 cell line was found to be 444 ± 22 µM. The results for the IC50 (in the data set on L. tropica promastigotes [1]; in data set [2]) were 266 ± 8 µM and 313 ± 40 µM, respectively.
Regarding `Nc1ccnn1C(=O)C1CCC2(CC1)OOC1(O2)C2CC3CC(C2)CC1C3` (stereo not drawn) [OZ1, (5-Amino-1H-pyrazol-1-yl)(dispiro[cyclohexane-1,3′-[1,2,4]trioxolane-5′,2″-tricyclo-[3.3.1.1^3,7]-decan]-4-yl)methanone], the “selectivity (SI values)” value in the data set on THP-1 cell line was under 5. Moreover, in data set [3], the CC50 at 48 h is 664 ± 163 µM. Besides, in the data set with L. tropica promastigotes [1] (Leishmania tropica), the 50% inhibitory concentration (IC50) was determined as 219 ± 25 µM. For the same molecule, in data set [2], the “Promastigotes Susceptibility IC50 ± SEM, L. infantum” value was “lack of activity” and the IC50 is over 400 µM. Besides, in the data set with L. tropica promastigotes [4], the “Flagellum size of L. tropica promastigotes” value came out at 13.561 ± 3.535 µm, the “Body size of L. tropica promastigotes” value amounted to 5.265 ± 1.733 µm and the “Morphological alterations of L. tropica promastigotes” value was “considerable damage”.
Regarding `Nc1ccn(C(=O)C2CCC3(CC2)OOC2(OO3)C3CC4CC(C3)CC2C4)n1` (stereo not drawn) [T1•HCl, (3-Amino-1H-pyrazol-1-yl) (dispiro[cyclohexane-1,3′-[1,2,4,5]tetraoxane-6′,2″-tricyclo [3.3.1.1^3,7]decan]-4-yl) methanone hydrochloride], the CC50 with THP-1 cell line was 529 ± 108 µM. Also, the IC50 (with L. tropica promastigotes [1] (Leishmania tropica); in data set [2] (Leishmania infantum)) was over 400 µM throughout.
For `Cl.Nc1ccnn1C(=O)C1CCC2(CC1)OOC1(O2)C2CC3CC(C2)CC1C3` (stereo not drawn) [OZ1•HCl, (5-Amino-1H-pyrazol-1-yl) (dispiro[cyclohexane-1,3′-[1,2,4]trioxolane-5′,2″-tricyclo-[3.3.1.1^3,7]-decan]-4-yl) methanone hydrochloride], the CC50 in the data set on THP-1 cell line stood at 509 ± 155 µM. Moreover, the 50% inhibitory concentration (IC50) came to 135 ± 36 µM with L. tropica promastigotes [1], 87 ± 39 µM in data set [5] and 164 ± 20 µM in data set [2]. Besides, the “SI (selectivity index)” value in data set [5] stood at 5.9.
As to `Nc1cc[nH]n1` [PIR, 3-aminopyrazole, reference compound], the CC50 at 48 h in data set [3] is 202 ± 10 µM. Also, in the data set with L. tropica promastigotes [1], the “Promastigotes Susceptibility IC50 ± SEM, L. tropica” value is recorded as “devoid of antileishmanial activity”. Moreover, the IC50 (in the data set with L. tropica promastigotes [1] (Leishmania tropica); in data set [2] (Leishmania infantum)) was over 400 µM in each case. In data set [2], the “Promastigotes Susceptibility IC50 ± SEM, L. infantum” value is recorded as “devoid of antileishmanial activity”.
On to `CS(=O)(=O)O.Nc1ccnn1C(=O)C1CCC2(CC1)OOC1(O2)C2CC3CC(C2)CC1C3` (stereo not drawn) [OZ1•MsOH, (5-Amino-1H-pyrazol-1-yl) (dispiro[cyclohexane-1,3′-[1,2,4]trioxolane-5′,2″-tricyclo-[3.3.1.1^3,7]-decan]-4-yl) methanone mesylate], for which, in the data set on THP-1 cell line, the CC50 worked out at 336 ± 196 µM. The IC50 with L. tropica promastigotes [1] is 198 ± 24 µM; in data set [5] it was over 400 µM; in data set [2] it was 183 ± 48 µM. Moreover, in data set [5], the “SI (selectivity index)” value was under 0.8.
With `CCOC(=O)C1CCC2(CC1)OOC1(O2)C2CC3CC(C2)CC1C3` (stereo not drawn) [2o, Ethyl dispiro[cyclohexane-1,3′-[1,2,4]trioxolane-5′,2″-tricyclo[3.3.1.1^3,7]decane]-4-carboxylate], the CC50 at 48 h in data set [3] was found to be 381 ± 172 µM. Further, the figures for the IC50 (with L. tropica promastigotes [1] (Leishmania tropica); in data set [5] (setting [6]); in data set [2] (Leishmania infantum)) were 156 ± 18 µM, 330 ± 48 µM and 123 ± 1 µM, respectively. Further, in data set [5], the “SI (selectivity index)” value turned out to be 1.2.
With `Nc1ccn(C(=O)C2CCC3(CC2)OOC2(O3)C3CC4CC(C3)CC2C4)n1` (stereo not drawn) [OZ2•TsOH, (3-Amino-1H-pyrazol-1-yl) (dispiro[cyclohexane-1,3′-[1,2,4]trioxolane-5′,2″-tricyclo-[3.3.1.1^3,7]decan]-4-yl) methanone p-tosylate], in the data set with THP-1 cell line, the CC50 turned out to be 479 ± 83 µM. Besides, the IC50 in the data set on L. tropica promastigotes [1] is 260 ± 82 µM; in data set [2] it was 217 ± 47 µM.
Taken in the same sequence, the figures for `Nc1ccn(C(=O)C2CCC3(CC2)OOC2(O3)C3CC4CC(C3)CC2C4)n1` (stereo not drawn) [OZ2•HCl, (3-Amino-1H-pyrazol-1-yl) (dispiro[cyclohexane-1,3′-[1,2,4]trioxolane-5′,2″-tricyclo-[3.3.1.1^3,7]decan]-4-yl) methanone hydrochloride] were 425 ± 104 µM, over 400 µM and 258 ± 91 µM.
`CCOC(=O)C1CCC2(CC1)OOC1(OO2)C2CC3CC(C2)CC1C3` (stereo not drawn) [2t, Ethyl dispiro[cyclohexane-1,3′-[1,2,4,5]tetraoxane-6′,2″-tricyclo[3.3.1.1^3,7]decane]-4-carboxylate]: the half-maximal cytotoxic concentration (CC50) at 48 h in data set [3] was determined as 374 ± 119 µM. Moreover, the figures for the IC50 (in the data set on L. tropica promastigotes [1] (Leishmania tropica); in data set [5] (setting [6]); in data set [2] (Leishmania infantum)) were 143 ± 9 µM, 45 ± 28 µM and 128 ± 27 µM, respectively. For the same molecule, the “SI (selectivity index)” value in data set [5] was determined as 8.4.
For `Nc1ccn(C(=O)C2CCC3(CC2)OOC2(O3)C3CC4CC(C3)CC2C4)n1` (stereo not drawn) [OZ2, (3-Amino-1H-pyrazol-1-yl)(dispiro[cyclohexane-1,3′-[1,2,4]trioxolane-5′,2″-tricyclo[3.3.1.1^3,7]decan]-4-yl)methanone], in the data set with THP-1 cell line, the CC50 turned out to be 202 ± 116 µM and the “selectivity (SI values)” value is given as under 5. For the same molecule, in the data set with L. tropica promastigotes [1], the IC50 was 161 ± 19 µM. Further, in data set [2] (Leishmania infantum), the IC50 was 219 ± 44 µM. Also, in the data set with L. tropica promastigotes [4], the “Flagellum size of L. tropica promastigotes” value was 12.404 ± 3.745 µm, the “Body size of L. tropica promastigotes” value came out at 9.646 ± 2.744 µm and the “Morphological alterations of L. tropica promastigotes” value is on record as “considerable damage”.
On to `Nc1ccnn1C(=O)C1CCC2(CC1)OOC1(O2)C2CC3CC(C2)CC1C3` (stereo not drawn) [OZ1•TsOH, (5-Amino-1H-pyrazol-1-yl)(dispiro[cyclohexane-1,3′-[1,2,4]trioxolane-5′,2″-tricyclo-[3.3.1.1^3,7]-decan]-4-yl)methanone p-tosylate], for which the cytotoxic concentration (CC50) in the data set with THP-1 cell line worked out at 510 ± 109 µM. The IC50 is 199 ± 9 µM in the data set with L. tropica promastigotes [1], 246 ± 32 µM in data set [5] and 181 ± 35 µM in data set [2]. Further, the “SI (selectivity index)” value in data set [5] turned out to be 2.1.
In the case of `Nc1ccnn1C(=O)C1CCC2(CC1)OOC1(OO2)C2CC3CC(C2)CC1C3` (stereo not drawn) [T1•TsOH, (5-Amino-1H-pyrazol-1-yl) (dispiro[cyclohexane-1,3′-[1,2,4,5]tetraoxane-6′,2″-tricyclo-[3.3.1.1^3,7]-decan]-4-yl) methanone p-tosylate], the CC50 with THP-1 cell line was 331 ± 126 µM. Moreover, the IC50 (in the data set with L. tropica promastigotes [1]; in data set [2]) was over 400 µM each time.
